Assay results from patent US20190352341A1, “MODIFIED PEPTIDES AND THEIR USE FOR TREATING SYSTEMIC LUPUS ERYTHEMATOSUS” (IMMUPHARMA FRANCE SA, priority 2018, published 2019).
Numbered stars: 1 amine (or outer) side, 2 acyl side, 3 side chain; on linkers, the order of the positions; unused ones are H or OH. Square brackets hold non-standard residues; d marks the D form. Peptide text beside a SMILES is read from it. ξ: configuration not given here. X1 = CSCC[C@H](NC(=N)[C@H](Cc1c[nH]cn1)N[*:1])C(=O)[*:2]; pS = N[C@@H](COP(=O)(O)O)C(=O)O; Ile(3ξ) = CCC(C)[C@H](N)C(=O)O

Key:
[1] = Stability of the peptides at 37° C. (HPLC peak area); format: physicochemical; details: for 95% of stability (predicted): time to 95% from linear equation; for Stability (%) Linear equation: slope: y = stability %, x = days; for Stability (%): 10% mannitol
Method: The stability of the peptide SEQ ID NO: 1 in which the serine at position 10 is phosphorylated and the methionine at position 4 is oxydized (P140(MO)), and the peptide SEQ ID NO: 1 in which the serine at position 10 is phosphorylated (P140) was measured at 37° C., in a solution of 10% (v/v) mannitol. For each peptide, 3 concentrations have been tested: 200, 100 and 50 μg/mL.
At the indicated time, the integrity of P140 and P140(MO) peptides was measured in saline by high-performance liquid chromatography from the area of the peak corresponding to the intact peptide.
Stability is measured by using the HPLC peak surface.

SLE patients = assay: Clinical trial in SLE patients (SRI-4 response); format: in vivo, human
Method: Human patients with SLE were administered the “standard of care” for SLE+placebo or SEQ ID NO.:1 (serine 10 phosphorylated) (“P140”). The P140 peptide was administered in a solution with mannitol; the placebo was a mannitol solution only. Patients were treated for 52 weeks.
Based on the protocol and the commonly accepted study design, there were two groups of patients: (1) patients receiving P140 plus “Standard of Care” and (2) patients receiving placebo plus “Standard of Care”. “Standard of Care” includes treatment with other drugs such as steroids, anti-malarials, methotrexate etc. No patients were treated just with placebo, but all were receiving other drug treatments. The definition of a “responder” is based on the SLE Responder Index (SRI-4) score, which requires a reduction of at least four points in this score. Therefore, patients who improve by less than four points are counted as non-responders, but also no distinction is made between patients who improve by more than 4 points, all being equal “responders”.
The SRI-4 score comprises criteria from three different internationally validated indices, SELENA-SLE Disease Activity Index (SELENA-SLEDAI), Physician Global Assessment (PGA) and the British Isles Lupus Assessment Group (BILAG) 2004. See Luijten, K. M. et al., Autoimmun Rev. 2012 March; 11(5):326-9.

Lewis rats = assay: Chronic-EAN rat model for CIDP; format: in vivo; details: P140 100 μg/rat i.p., vs untreated rats
Method: Male Lewis rats, 7-8 weeks old, weighing 250-270 g, purchased from Charles River (Domaine des Oncins, L'Arbresle, France) were used. To induce chronic-EAN (CIDP), rats were immunized with S-palm-P0(180-199) peptide by subcutaneous injection at the base of the tail of 200 μL of an inoculum containing 200 μg of peptide (Ac(palm)KRGRQTPVLYAMLDHSRS), and 0.5 mg of Mycobacterium tuberculosis (strain H37 RA, Difco, Detroit, Mich., USA) emulsified in 100 μL of saline solution and 100 μL of Freund's incomplete adjuvant (SIGMA-Aldrich, St-Quentin Fallavier, France).
Body weight and clinical scores are assessed daily until 60 days post-immunization (dpi). Severity of paresis is graded as follows: 0=no illness; 1=flaccid tail; 2=moderate paraparesis; 3=severe paraparesis; 4=tetraparesis; 5=death.
100 μg/rat P140 peptide in 500 μL water/saline (1:10) were intraperitoneally injected at 5, 7, 9, 13 dpi and 3 times per week from 22 dpi until the end of the study.

CD4+ T splenocytes = assay: Collagen-induced arthritis (CIA) mouse model, ex vivo T splenocyte proliferation; format: in vivo; details: DBA/1 CIA mice, peptide i.v. day −1, +7, +14, +20; 100 μg CII/mL, CFSE assay by FACS
Method: Next, P140 peptide was administered in a model of mice that develop a RA-like disease (we anticipated to use this mouse model as a negative control of MRL/lpr-lupus prone mice). This model, called collagen-induced arthritis (CIA) mouse model, is the most commonly studied autoimmune model of RA. In this model, autoimmune arthritis is induced by immunizing DBA/1 mice with an emulsion of complete Freund's adjuvant (CFA) and type II collagen (CII), and typically, the first signs of arthritis appear in 21-28 days after immunization (Brand et al., 2007). CIA shares several pathological features with human RA, and CII is a major protein in cartilage, the target tissue of RA. Pathological features include synovial hyperplasia, mononuclear cell infiltration, and cartilage degradation. Susceptibility in these mice is linked to the expression of specific MHC class II genes, DBA/1 have H-2^q haplotype.
P140 peptide was thus administrated intravenously to DBA/1 mice at day −1, +7, +14 and +20 in a setting close to the one we used in MRL/lpr mice ([…]). CII in CFA was injected at days+1 and +21 (200 μg, intradermal route). Mouse weight and their clinical score were followed using very classical procedure. Biological parameters were also evaluated (i.e. T cell response, antibody response, joint histology, etc).

**Q.** Which “Stability (%) Linear equation: intercept” value ([1]; 50 μg/mL) does the source give for `CCC(C)[C@H](NC(=O)[C@H](Cc1ccccc1)NC(=O)[C@H](C)NC(=O)[C@H](Cc1ccc(O)cc1)NC(=O)CNC(=O)[C@H](CCCNC(=N)N)NC(=O)[C@@H]1CCCN1C(=O)[C@H](CCCCN)NC(=O)CNC(=O)[C@H](COP(=O)(O)O)NC(=O)[C@H](CCCNC(=N)N)NC(=O)[C@H](CCCCN)NC(=O)[C@H](CO)NC(=O)[C@H](Cc1ccc(O)cc1)NC(=O)[C@@H](NC(=O)[C@H](CCSC)NC(=N)[C@H](Cc1c[nH]cn1)NC(=O)[C@@H](NC(=O)[C@@H](N)CCCNC(=N)N)C(C)CC)C(C)C)C(=O)N[C@@H](CCC(=O)O)C(=O)N[C@@H](Cc1ccc(O)cc1)C(=O)O` (stereo partly drawn) [Compound P140] (H-R[Ile(3ξ)][X1]VYSKR[pS]GKPRGYAF[Ile(3ξ)]EY-OH) here?
**A.** Its value is 98.299.

**Q.** What about the “95% of stability (predicted)” value ([1]; 50 μg/mL) of the same compound?
**A.** The value was 1 months.

**Q.** What about the “Stability (%) Linear equation: slope” value ([1]; 50 μg/mL) of the same compound?
**A.** The value was “y = −0.099x +”.

**Q.** What about the “Stability (%) Linear equation: intercept” value ([1]; 100 μg/mL) of the same compound?
**A.** The value was 99.25.

**Q.** What about the “95% of stability (predicted)” value ([1]; 100 μg/mL) of the same compound?
**A.** Its value is 2 months.

**Q.** What about the “Stability (%) Linear equation: slope” value ([1]; 100 μg/mL) of the same compound?
**A.** The value was “y = −0.0612x +”.

**Q.** What about the “Stability (%) Linear equation: intercept” value ([1]; 200 μg/mL) of the same compound?
**A.** Its value is 99.535.

**Q.** And the “95% of stability (predicted)” value ([1]; 200 μg/mL)?
**A.** The value was 6 months.

**Q.** What about the “Stability (%) Linear equation: slope” value ([1]; 200 μg/mL) of the same compound?
**A.** Its value is “y = −0.0238x +”.

**Q.** What about the “Stability (%)” value ([1]; 50 μg/mL, day 0) of the same compound?
**A.** The value was 100%.

**Q.** And the “Stability (%)” value ([1]; 50 μg/mL, day 20)?
**A.** Its value is 95.5%.

**Q.** And the “Stability (%)” value ([1]; 50 μg/mL, day 40)?
**A.** The value was 93.2%.

**Q.** And the “Stability (%)” value ([1]; 50 μg/mL, day 60)?
**A.** The value was 91.5%.

**Q.** What about the “Stability (%)” value ([1]; 50 μg/mL, day 80) of the same compound?
**A.** Its value is 90.3%.

**Q.** What about the “Stability (%)” value ([1]; 50 μg/mL, day 100) of the same compound?
**A.** Its value is 89.6%.

**Q.** And the “Stability (%)” value ([1]; 100 μg/mL, day 0)?
**A.** Its value is 100%.

**Q.** And the “Stability (%)” value ([1]; 100 μg/mL, day 20)?
**A.** The value was 97.5%.

**Q.** What about the “Stability (%)” value ([1]; 100 μg/mL, day 40) of the same compound?
**A.** Its value is 96.2%.

**Q.** And the “Stability (%)” value ([1]; 100 μg/mL, day 60)?
**A.** Its value is 95.5%.

**Q.** What about the “Stability (%)” value ([1]; 100 μg/mL, day 80) of the same compound?
**A.** The value was 94.5%.

**Q.** And the “Stability (%)” value ([1]; 100 μg/mL, day 100)?
**A.** Its value is 93.4%.

**Q.** And the “Stability (%)” value ([1]; 200 μg/mL, day 0)?
**A.** The value was 100%.

**Q.** What about the “Stability (%)” value ([1]; 200 μg/mL, day 20) of the same compound?
**A.** Its value is 98.7%.

**Q.** And the “Stability (%)” value ([1]; 200 μg/mL, day 40)?
**A.** The value was 98.5%.

**Q.** What about the “Stability (%)” value ([1]; 200 μg/mL, day 60) of the same compound?
**A.** Its value is 97.9%.

**Q.** And the “Stability (%)” value ([1]; 200 μg/mL, day 80)?
**A.** Its value is 97.6%.

**Q.** What about the “Stability (%)” value ([1]; 200 μg/mL, day 100) of the same compound?
**A.** Its value is 97.4%.

**Q.** What about the “Response rate (SRI-4)” value (SLE patients; Anti dsDNA+ European study population, placebo 48.8%) of the same compound?
**A.** The value was 71.1%.

**Q.** And the “Response rate (SRI-4)” value (SLE patients; Anti dsDNA+ patients, full study population, 52 weeks, plus standard of care, placebo 47.3%)?
**A.** The value was 61.5%.

**Q.** And the “Patients in full remission” value (SLE patients; Anti dsDNA+ patients, none in the placebo group)?
**A.** Its value is 7.6%.

**Q.** What about the Tolerability (SLE patients; SLE patients, 52 weeks) of the same compound?
**A.** The Tolerability was “well tolerated”.

**Q.** And the “Chronicity of the disease” value (Lewis rats)?
**A.** The value was “seems abolish the chronicity of the disease”.

**Q.** What about the Maximal clinical scores (Lewis rats) of the same compound?
**A.** Its Maximal clinical scores is “decreased the maximal clinical scores”.

**Q.** And the “Onset of the disease” value (Lewis rats)?
**A.** Its value is “delayed the onset of the disease”.

**Q.** And the “Weight loss during the disease course” value (Lewis rats)?
**A.** Its value is “less important”.

**Q.** And the “CD4+ T splenocytes proliferation ex vivo in the presence of CII” value (CD4+ T splenocytes)?
**A.** The value was “strongly diminished”.
